# Data as given in patent publication US20240156974A1, “COMPOSITIONS AND METHODS FOR MODULATION OF ANTIBODY ACTIVITY” (Institute For Cancer Research D/B/A Tha Research Institute …, priority 2021, published 2024).
# Test system: CTLA-4/CD80 interaction
# Test: In vitro CTLA-4/CD80 HTRF binding assay with triple-mutant anti-CTLA-4 scFv (Rip3)
# Settings: no cathepsin B; up to 75 μM JK43 and prodrug; FIG. 2
# Method: In addition to the above, an in vitro CTLA-4/CD80 HTRF (homogeneous time resolved fluorescence) binding assay was performed with cathepsin B activatable prodrug. Specifically, the HTRF assay was used to assess the ability of antibodies to block the CTLA-4/CD80 interaction using a CTLA-4/CD80 binding assay kit (cat. no. 64CTLA80PEG; Cisbio (Codolet, France)). […]
# To the above, 4 μL of Tag1-CD80 protein and 4 μL of Tag2-CTLA-4 were added into a black 384-well low volume plate and then incubated at 37° C. for 10 minutes. […] These were used to measure the fluorescence energy transfer between donor Anti-Tag1 Eu Cryptate and acceptor Anti-Tag d2 reagent. Data was collected at different time points (1, 3, 8, 12 and 24 hours) and the FRET signals were measured on a envision multimode plate reader (PerkinElmer, Shelton, CT) using 340 nm as the excitation wavelength, a 620 nm filter for the Eu donor fluorescence detection, and a 665 nm filter for the acceptor fluorescence detection. HTRF signals were calculated as a ratio as follows: (intensity of 665 nm)/(intensity of 620 nm)×10,000, which was plotted against the WT/triple mutant antibody (5GSWT and 5GS 3′M (Rip3)) concentration to derive the EC50.
structure (smiles),measurement,value
"c1ccc(COc2ccc3cn[nH]c3c2)cc1 [Stitch3, 6-phenylmethoxy-1H-indazole]",rescue of the activity of the triple mutant scFv variant (Rip3),rescues the activity
